These results are taken from patent US8445539B2, “Alpha-aminoamide derivatives useful in the treatment of psychiatric disorders” (priority 2007, dated 2013).

The test has as its system MK-801-induced PPI disruption. In words: Prepulse inhibition of startle with disruption by MK-801. It is filed as in vivo, Wistar rats. Conditions: pretreatment vehicle, treatment MK-801 0.2 mg/kg i.p., mean ± SEM. From the text: Prepulse inhibition (PPI) is a cross-species phenomenon (i.e., it is present in mammals ranging from mice to humans), yet it is relatively impaired among schizophrenic patients. The PPI procedure is used to assess the subject's ability to “gate” or filter environmental information. In the acoustic (startle model) of sensorimotor gating a weak acoustic stimulus (prepulse) decrease the reflexive flinching response (startle) produced by a second, more intense, stimulus (the pulse). Drugs like dizocilpine (MK-801) or amphetamine disrupt PPI and represent an animal model of schizophrenia; antipsychotic drugs are able to prevent PPI deficit. The test is quite useful to screen potential antipsychotic drugs.
Methods: Male Wistar rats, weighing 200-300 g were used. Apparatus: All startle and PPI testing has been performed in four startle chambers. Each ventilated illuminated and sound proof chamber contained a clear non-restrictive Plexiglas cylinder resting on a platform. A high-frequency loudspeaker inside the chamber produced both a continuous background noise of 70 dB and the various acoustic stimuli. Vibrations of the Plexiglas cylinder caused by the whole-body startle response of the animal were transduced into analogue signals by a piezoelectric unit attached to the platform. These signals were then digitized and stored by a computer. Sixty-five readings were taken at 1-ms intervals starting at stimulus onset, and the average amplitude was used to determine the acoustic startle response. Sound levels is given in dB.
Prepulse inhibition session: After 5 min of habituation (background white noise, 70 dB), two types of acoustic stimuli were used: acoustic stimulus alone (120 dB, 40 ms) or the stimulus proceeded by a prepulse (76, 79, 82 dB, 40 ms) applied 100 ms before the stimulus. During each experimental session 20 trials of each type were presented with interstimulus interval of 20 s. The amplitudes were averaged for each individual animal, separately for both types of trials (stimulus alone or stimulus preceded by the prepulse). The degree of prepulse inhibition was shown as a percentage score (% PPI) calculated as […] a difference between the amplitude of the pulse-alone (P) and the amplitude of the prepulse+pulse trials (PP+P), divided by the amplitude of the pulse-alone trials and multiplied by 100. […] Substances and treatments: MK-801 0.2 mg/kg was dissolved in saline and was given i.p. In each experiment, […] were assigned to receive either compounds of the disclosure or vehicle and were tested in the PPI session using a between-subjects design. The order of drug treatment for the first experiment was test-compound, followed by MK-801; for the second experiment rats received test-compound and then amphetamine. Statistical Analysis: Multiple ANOVA was conducted followed by Dunnett's post hoc test.

Structures are written as SMILES.

As to `C[C@]12N[C@H](Cc3ccccc31)c1ccccc12` [MK-801, reference compound], the Percentage of inhibition (% PPI) came out at 9.07 ± 0.81 %. In addition, where the note is “startle amplitude”, the Acoustic tone alone came to 40.50 ± 1.96 and the “Startle amplitude on prepulse + pulse trials” value came to 37.00 ± 2.11.
